Molecules are shown by their SMILES. The source made the active and inactive calls.

The subject of assay [1] is Vero. Description: cells. Type of assay: functional. To be noted: Chlorocebus sabaeus.
For assay [2], the system named is BJ. The assay can be described thus: cells. Type of assay: functional, cell-based. To be noted: Homo sapiens.
The target in assay [3] is Serine/threonine-protein phosphatase PP1-alpha catalytic subunit (Homo sapiens, UniProt P62136). The assay can be described thus: PP1 phosphatase inhibitors, dose response, biochemical, fluorescence (AID 2394).
Chain of Serine/threonine-protein phosphatase PP1-alpha catalytic subunit (P62136 whole entry): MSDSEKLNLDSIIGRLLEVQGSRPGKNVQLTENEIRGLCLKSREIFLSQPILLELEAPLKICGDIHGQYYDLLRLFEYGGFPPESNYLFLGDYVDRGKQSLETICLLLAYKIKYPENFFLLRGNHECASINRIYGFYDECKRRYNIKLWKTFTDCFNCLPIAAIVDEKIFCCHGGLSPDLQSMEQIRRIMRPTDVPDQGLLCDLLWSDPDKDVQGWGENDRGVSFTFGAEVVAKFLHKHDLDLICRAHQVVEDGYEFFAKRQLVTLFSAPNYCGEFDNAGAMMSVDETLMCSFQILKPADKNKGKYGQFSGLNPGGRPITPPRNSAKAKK

The CC50 is the concentration that lowers cell viability or growth by half. `O=C(Nc1ccc(C#Cc2ccccc2)cc1)C1CC1`: in assay [1], the CC50 was > 25 µM (active). What is called EC50 is the concentration at which the effect is half-maximal. In the case of `COC(=O)C[C@]1(C(=O)OC)CN(C#N)N(c2ccc(Cl)cc2)C12c1ccccc1-c1ccccc12`, the EC50 in assay [2] is 2.7 µM (active). One may read the IC50 as the concentration that inhibits the measured activity by half. A higher IC50 goes with lower potency. Turning to `CCCCn1c(NC(=O)c2ccco2)c(C(=O)OCC)c2nc3ccccc3nc21`, the IC50 in assay [3] is listed as 62.5 µM (not active).

(Values after ChEMBL document CHEMBL1201862, “PubChem BioAssay data set” (2004).)
